Test results taken from ChEMBL document CHEMBL1777678, “2,4-diarylthiazole antiprion compounds as a novel structural class of antimalarial leads” (Bioorg Med Chem Lett, 2011).
The source made the active and inactive calls. The calls are words filed in the database; no cut-off is given here.

Experiments:
Plasmodium falciparum [1] = test: Antimalarial malarial activity against chloroquine-sensitive Plasmodium falciparum 3D7 infected in human A positive erythrocytes assessed as inhibition of [3H]hypoxanthine incorporation after 24 hrs; format: functional, organism-based
Plasmodium falciparum [2] = test: Antimalarial malarial activity against chloroquine-resistant Plasmodium falciparum K1 infected in human A positive erythrocytes assessed as inhibition of [3H]hypoxanthine incorporation after 24 hrs; format: functional, organism-based
[3] = Antiprion activity against Chandler strain of sheep scrapie prion protein infected in mouse SMB cells assessed as clearance of disease-associated scrapie prion protein; format: cell-based, Ovis aries
[4] = Cytotoxicity against mouse SMB cells up to 20 uM; format: cell-based
Plasmodium falciparum [5] = test: Antimalarial malarial activity against chloroquine-resistant Plasmodium falciparum K1 infected in human A positive erythrocytes assessed as inhibition of [3H]hypoxanthine incorporation 10 ug/ml after 24 hrs; format: functional, organism-based
Plasmodium falciparum [6] = test: Antimalarial malarial activity against chloroquine-sensitive Plasmodium falciparum 3D7 infected in human A positive erythrocytes assessed as inhibition of [3H]hypoxanthine incorporation at 19.3 ug/ml after 24 hrs; format: functional, organism-based
[7] = Ovis aries, SMB, read-out: EC50

Compound `O=C(c1sc(-c2ccccc2)nc1-c1ccccc1)N1CCC(N2CCCCC2)CC1` has an IC50 (Plasmodium falciparum [1]) of 20.2 µM, an IC50 (Plasmodium falciparum [2]) of 0.83 µM and an EC50 [3, 7] of 1.9 µM. The Activity [4] was “Non-toxic”.

With `O=C(NCCN1CCOCC1)c1sc(-c2ccccc2)nc1-c1ccccc1` the inhibition (Plasmodium falciparum [5]) was “inactive”, the inhibition (Plasmodium falciparum [6]) was “inactive” and the EC50 ([3]; smb) was “Not Active”. The Activity [4] was “Non-toxic”.

`CCN(CC)CCNC(=O)c1sc(-c2cccs2)nc1-c1ccccc1` gave an IC50 (Plasmodium falciparum [1]) of 13.8 µM, an IC50 (Plasmodium falciparum [2]) of 4.4 µM and an EC50 [3, 7] of 6.7 µM. For the same compound, the Activity [4] was “Non-toxic”.

In the case of `CCN(CC)CCNC(=O)c1sc(-c2ccc(OC)cc2)nc1-c1ccccc1`, the IC50 (Plasmodium falciparum [2]) is reported as 7.7 µM, the inhibition (Plasmodium falciparum [6]) is reported as “inactive” and the EC50 [3, 7] is reported as 4 µM. For the same compound, the Activity [4] was “Non-toxic”.

In the case of `O=C(c1sc(-c2ccccc2)nc1-c1ccccc1)N1CCC(N2CCCC2)CC1`, the IC50 (Plasmodium falciparum [1]) is reported as 12 µM, the IC50 (Plasmodium falciparum [2]) is reported as 6.2 µM and the EC50 [3, 7] is reported as 5.5 µM. For the same compound, the Activity [4] was “Non-toxic”.

`CCN(CC)CCCC(C)Nc1ccnc2cc(Cl)ccc12` (stereo not drawn) [CHLOROQUINE] gave an EC50 [3, 7] of 2.3 µM.

In the case of `O=C(NCCN1CCCC1)c1sc(-c2ccccc2)nc1-c1ccccc1`, the IC50 (Plasmodium falciparum [2]) is reported as 14.9 µM, the inhibition (Plasmodium falciparum [6]) is reported as “inactive” and the EC50 [3, 7] is reported as 10.7 µM. For the same compound, the Activity [4] was “Toxic”.

For `O=C(NCc1ccccn1)c1sc(-c2ccccc2)nc1-c1ccccc1`, the IC50 (Plasmodium falciparum [1]) was 19.7 µM, the IC50 (Plasmodium falciparum [2]) was 15 µM and the EC50 ([3]; smb) was “Not Active”. The Activity [4] was “Non-toxic”.

`CCN(CC)CCCNC(=O)c1sc(-c2ccccc2)nc1-c1ccccc1` showed an IC50 (Plasmodium falciparum [1]) of 1 µM, an IC50 (Plasmodium falciparum [2]) of 13.3 µM and an EC50 [3, 7] of 2.3 µM. The Activity [4] was “Non-toxic”.

In the case of `CCN(CC)CCCC(C)NC(=O)c1sc(-c2ccccc2)nc1-c1ccccc1` (stereo not drawn), the IC50 (Plasmodium falciparum [1]) is reported as 9.5 µM, the IC50 (Plasmodium falciparum [2]) is reported as 3.8 µM and the EC50 [3, 7] is reported as 2.9 µM. For the same compound, the Activity [4] was “Non-toxic”.

With `CCN(CC)CCNC(=O)c1sc(-c2cccnc2)nc1-c1ccccc1` the IC50 (Plasmodium falciparum [2]) was 5.3 µM, the inhibition (Plasmodium falciparum [6]) was “inactive” and the EC50 [3, 7] was 20 µM. For the same compound, the Activity [4] was “Non-toxic”.

For `O=C(NCCCn1ccnc1)c1sc(-c2ccccc2)nc1-c1ccccc1`, the IC50 (Plasmodium falciparum [1]) was 13.9 µM, the IC50 (Plasmodium falciparum [2]) was 11.5 µM and the EC50 ([3]; smb) was “Not Active”. For the same compound, the Activity [4] was “Non-toxic”.

For `CN(C)CCNC(=O)c1sc(-c2ccccc2)nc1-c1ccccc1`, the IC50 (Plasmodium falciparum [2]) was 8.8 µM, the inhibition (Plasmodium falciparum [6]) was “inactive” and the EC50 [3, 7] was 4.8 µM. For the same compound, the Activity [4] was “Toxic”.

With `CCN(CC)CCNC(=O)c1sc(-c2ccccc2)nc1-c1ccccc1` the IC50 (Plasmodium falciparum [2]) was 0.71 µM, the inhibition (Plasmodium falciparum [6]) was “inactive” and the EC50 [3, 7] was 4.9 µM. For the same compound, the Activity [4] was “Non-toxic”.
